Laboratory results: patent US20060009478A1, “Methods for the treatment of back pain” (priority 2003, published 2006)

How the values were obtained:
[1] = system: patients with moderate to severe chronic pain due to osteoarthritis of the hip or knee
Procedure: During the 3-week treatment period, patients recorded their PI every 24 hours in their daily diary immediately before their bedtime dose. In addition, patients recorded adverse events and date/time of taking the study medication in the daily diary. Patients returned to the clinic on Week 2, Day 1; Week 3, Day 1 and for End of Treatment assessments (±one day) by the investigator. At each clinic visit, the investigator also collected, additional data, including quality of analgesia, pain control, the SF-12 Health Survey, the WOMAC Osteoarthritis Index and a global assessment of study medication. Patients were required to return for a post-treatment follow-up visit approximately one week after the final dose of study medication (±two days).
Adverse events reported were mapped to preferred terms and organ systems using the MedDRA mapping system. Adverse events were associated with weeks according to their onset date. The number and percentage of patients reporting each event were summarized by treatment group and week.
Treatment groups were examined for differences in the incidence and severity of selected opioid-associated adverse events, including constipation, dizziness, somnolence, headache, pruritus, nausea, vomiting, urinary retention, and bradypnoea.

[2] = system: patients with moderate to severe chronic low back pain; experiment: Quality of analgesia, low back pain study; format: in vivo, human; conditions: LOCF, ITT
Procedure: Quality of analgesia was assessed at clinic visits during the titration and fixed-dose periods. The patient was prompted with the question, “How would you rate the quality of your pain relief at this time?” and responses were selected from poor, fair, good, very good, and excellent.
Global assessment and quality of analgesia ratings were summarized descriptively by treatment group for both the titration and fixed-dose periods. Treatments were compared at each visit in the fixed-dose period, globally and in pairwise fashion, using the Cochran-Mantel-Haenszel row mean scores (CMH-RMS) test, using equally spaced scores.

COc1ccc2c3c1O[C@H]1C(=O)CC[C@@]4(O)[C@@H](C2)N(C)CC[C@]314 [OXY QID, oxycodone]
Adverse event Headache, % of patients ([1]; Week 3, 40 mg OXY/d): 8.0%
Adverse event Headache, number of patients ([1]; Week 3, 40 mg OXY/d): 6
Adverse event Nausea, number of patients ([1]; Week 3, 40 mg OXY/d): 8
Adverse event Pruritus, % of patients ([1]; Week 3, 40 mg OXY/d): 4.0%
Adverse event Pruritus, number of patients ([1]; Week 3, 40 mg OXY/d): 3
Adverse event Sommolence, % of patients ([1]; Week 3, 40 mg OXY/d): 2.7%
Adverse event Sommolence, number of patients ([1]; Week 3, 40 mg OXY/d): 2
Adverse event Vomiting, % of patients ([1]; Week 3, 40 mg OXY/d): 12.0%
Adverse event Vomiting, number of patients ([1]; Week 3, 40 mg OXY/d): 9
Patients who discontinued treatment because of adverse events (number) ([1]; of the 360 patients who received study drug, 3-week treatment): 29
Quality of analgesia EXCELLENT (4), number of patients ([2]; fixed dose period week 1): 25
Quality of analgesia EXCELLENT (4), percent of patients ([2]; fixed dose period week 1): 12.1%
Quality of analgesia FAIR (1), number of patients ([2]; fixed dose period week 1): 26
Quality of analgesia FAIR (1), percent of patients ([2]; fixed dose period week 1): 12.6%
Quality of analgesia GOOD (2), number of patients ([2]; fixed dose period week 1): 69
Quality of analgesia GOOD (2), percent of patients ([2]; fixed dose period week 1): 33.5%
Quality of analgesia POOR (0), number of patients ([2]; fixed dose period week 1): 33
Quality of analgesia POOR (0), percent of patients ([2]; fixed dose period week 1): 16.0%
Quality of analgesia VERY GOOD (3), number of patients ([2]; fixed dose period week 1): 52
Quality of analgesia VERY GOOD (3), percent of patients ([2]; fixed dose period week 1): 25.2%
Quality of analgesia EXCELLENT (4), number of patients ([2]; fixed dose period week 2): 24
Quality of analgesia EXCELLENT (4), percent of patients ([2]; fixed dose period week 2): 11.7%
Quality of analgesia FAIR (1), number of patients ([2]; fixed dose period week 2): 27
Quality of analgesia FAIR (1), percent of patients ([2]; fixed dose period week 2): 13.1%
Quality of analgesia GOOD (2), number of patients ([2]; fixed dose period week 2): 70
Quality of analgesia GOOD (2), percent of patients ([2]; fixed dose period week 2): 34.0%
Quality of analgesia POOR (0), number of patients ([2]; fixed dose period week 2): 32
Quality of analgesia POOR (0), percent of patients ([2]; fixed dose period week 2): 15.5%
Quality of analgesia VERY GOOD (3), number of patients ([2]; fixed dose period week 2): 52
Quality of analgesia VERY GOOD (3), percent of patients ([2]; fixed dose period week 2): 25.2%
Quality of analgesia EXCELLENT (4), number of patients ([2]; fixed dose period week 4): 20
Quality of analgesia EXCELLENT (4), percent of patients ([2]; fixed dose period week 4): 9.7%
Quality of analgesia FAIR (1), number of patients ([2]; fixed dose period week 4): 28
Quality of analgesia FAIR (1), percent of patients ([2]; fixed dose period week 4): 13.6%
Quality of analgesia GOOD (2), number of patients ([2]; fixed dose period week 4): 63
Quality of analgesia GOOD (2), percent of patients ([2]; fixed dose period week 4): 30.6%
Quality of analgesia POOR (0), number of patients ([2]; fixed dose period week 4): 35
Quality of analgesia POOR (0), percent of patients ([2]; fixed dose period week 4): 17.0%
Quality of analgesia VERY GOOD (3), number of patients ([2]; fixed dose period week 4): 59
Quality of analgesia VERY GOOD (3), percent of patients ([2]; fixed dose period week 4): 28.6%
Quality of analgesia EXCELLENT (4), number of patients ([2]; fixed dose period week 6): 24
Quality of analgesia EXCELLENT (4), percent of patients ([2]; fixed dose period week 6): 11.7%
Quality of analgesia FAIR (1), number of patients ([2]; fixed dose period week 6): 34
Quality of analgesia FAIR (1), percent of patients ([2]; fixed dose period week 6): 16.5%
Quality of analgesia GOOD (2), number of patients ([2]; fixed dose period week 6): 67
Quality of analgesia GOOD (2), percent of patients ([2]; fixed dose period week 6): 32.5%
Quality of analgesia POOR (0), number of patients ([2]; fixed dose period week 6): 36
Quality of analgesia POOR (0), percent of patients ([2]; fixed dose period week 6): 17.5%
Quality of analgesia VERY GOOD (3), number of patients ([2]; fixed dose period week 6): 44
Quality of analgesia VERY GOOD (3), percent of patients ([2]; fixed dose period week 6): 21.4%
Quality of analgesia EXCELLENT (4), number of patients ([2]; fixed dose period week 8): 24
Quality of analgesia EXCELLENT (4), percent of patients ([2]; fixed dose period week 8): 11.7%
Quality of analgesia FAIR (1), number of patients ([2]; fixed dose period week 8): 35
Quality of analgesia FAIR (1), percent of patients ([2]; fixed dose period week 8): 17.0%
Quality of analgesia GOOD (2), number of patients ([2]; fixed dose period week 8): 72
Quality of analgesia GOOD (2), percent of patients ([2]; fixed dose period week 8): 35.0%
Quality of analgesia POOR (0), number of patients ([2]; fixed dose period week 8): 33
Quality of analgesia POOR (0), percent of patients ([2]; fixed dose period week 8): 16.0%
Quality of analgesia VERY GOOD (3), number of patients ([2]; fixed dose period week 8): 41
Quality of analgesia VERY GOOD (3), percent of patients ([2]; fixed dose period week 8): 19.9%
Quality of analgesia EXCELLENT (4), number of patients ([2]; fixed dose period week 10): 24
Quality of analgesia EXCELLENT (4), percent of patients ([2]; fixed dose period week 10): 11.7%
Quality of analgesia FAIR (1), number of patients ([2]; fixed dose period week 10): 35
Quality of analgesia FAIR (1), percent of patients ([2]; fixed dose period week 10): 17.0%
Quality of analgesia GOOD (2), number of patients ([2]; fixed dose period week 10): 66
Quality of analgesia GOOD (2), percent of patients ([2]; fixed dose period week 10): 32.0%
Quality of analgesia POOR (0), number of patients ([2]; fixed dose period week 10): 35
Quality of analgesia POOR (0), percent of patients ([2]; fixed dose period week 10): 17.0%
Quality of analgesia VERY GOOD (3), number of patients ([2]; fixed dose period week 10): 45
Quality of analgesia VERY GOOD (3), percent of patients ([2]; fixed dose period week 10): 21.8%
Quality of analgesia EXCELLENT (4), number of patients ([2]; fixed dose period week 12): 21
Quality of analgesia EXCELLENT (4), percent of patients ([2]; fixed dose period week 12): 10.2%
Quality of analgesia FAIR (1), number of patients ([2]; fixed dose period week 12): 40
Quality of analgesia FAIR (1), percent of patients ([2]; fixed dose period week 12): 19.4%
Quality of analgesia GOOD (2), number of patients ([2]; fixed dose period week 12): 64
Quality of analgesia GOOD (2), percent of patients ([2]; fixed dose period week 12): 31.1%
Quality of analgesia POOR (0), number of patients ([2]; fixed dose period week 12): 37
Quality of analgesia POOR (0), percent of patients ([2]; fixed dose period week 12): 18.0%
Quality of analgesia VERY GOOD (3), number of patients ([2]; fixed dose period week 12): 43
Quality of analgesia VERY GOOD (3), percent of patients ([2]; fixed dose period week 12): 20.9%
